In patent publication US20240300945A1, “CLY SERIES COMPOUND, PREPARATION METHOD THEREFOR AND USE THEREOF IN PREPARATION OF DRUGS” (NANJING WELLBEST PHARMACEUTICAL CO., LTD, priority 2021, published 2024):
Marks after values point to notes of the source that are not given here.

Tested on: mouse hair loss model
Experiment: Mouse hair loss (androgenic alopecia) model: hair length
Assay type: in vivo, C57BL/6 mice
Conditions: mouse AGA model; external 2% tincture twice a day
Excerpt: (1) Preparation method of tincture of compounds CLY-1, CLY-2, CLY-3, CLY-4, CLY-8, CLY-11, CLY-19, CLY-36, and CLY-39: 60% ethanol was mixed with the above compounds to prepare a tincture of 2% concentration.
(2) Positive treatment drug: 2% minoxidil tincture (produced by the Institute of Dermatology, Chinese Academy of Medical Sciences)
The experimental mice were divided into the negative control group (external use of 60% ethanol), model group (external use of 60% ethanol), positive control group (external use of 2% minoxidil tincture), CLY-1 external treatment group (external use of 2% CLY-1 tincture), CLY-2 external treatment group (external use of 2% CLY-2 tincture), CLY-3 external treatment group (external use of 2% CLY-3 tincture), CLY-4 external treatment group (external use of 2% CLY-4 tincture), CLY-8 external treatment group (external use of 2% CLY-8 tincture) CLY-11 external treatment group (2% CLY-11 tincture), CLY-19 external treatment group (2% CLY-19 tincture), CLY-36 external treatment group (2% CLY-36 tincture), and CLY-39 external treatment group (2% CLY-39 tincture). There were 6 animals in each group, half male and half female. An area of 4 cm×5 cm from the back of experimental mice with hair removed was selected, and the hair removal area was painted yellow with 3% picric acid solution to determine the observation area of the hair removal experiment. In addition to the negative control group, mice in other groups were injected subcutaneously with testosterone propionate injection [8 ml/(kg·d)] at the back of the neck, once a day, for 60 consecutive days, to establish the model of androgenic alopecia (AGA). At the same time of modeling, the rats in the corresponding drug group were smeared with drugs on the observation area of the back at the rate of 1 ml/(piece·time), twice a day, with an interval of 2 hours. The normal control group and the model control group were smeared with the excipient (60% ethanol solution), 1 ml/(one time), twice a day, for 60 consecutive days.
10 hairs were extracted from the observation area on the back of each mouse every 15 days after administration, and the hair length was measured with a vernier caliper. After 60 days of administration, the skin of the experimental observation area was taken for routine tissue dehydration, paraffin embedding, HE staining, and light microscopy to observe the histopathological changes of mouse skin hair follicles and sebaceous glands. Semi-quantitative analysis was performed for each group. The grading criteria are as follows: the normal structure of dermal tissue cells, subcutaneous hair follicles, and sebaceous glands is marked as […]: no hyperplasia of dermal tissue is found, the lesions of hair follicles and sebaceous glands are limited, and no inflammation is found under the skin is marked as “+”: no obvious hyperplasia of dermal tissue is found, and the follicles are obviously cystic. No obvious hyperplasia of sebaceous glands is found, and no inflammation is found under the skin is marked as “+”: the dermal tissue has segmental hyperplasia, which is not obvious, A small number of hair follicles have cystic changes, and the sebaceous glands have mild hyperplasia and hypertrophy. There is no obvious inflammation under the skin, which is marked as “++”: the dermal tissue cells of the skin have different degrees of segmental hyperplasia, and some hair follicles have cystic changes, showing uneven size of hair follicles, and no cells around. The sebaceous glands have hyperplasia, and the nuclei in the proliferative glands are few. A few subcutaneous mild inflammatory hyperplasia is marked as “+++”.

Row | SMILES | 15-day hair length | 30-day hair length | 45-day hair length | 60-day hair length
1 | CN1CCC[C@@H](N(C(=O)c2ccc(-n3nnc4cccnc43)cc2)c2ncccc2Cl)C1 [CLY-1, (R)-4-(3H-[1,2,3]triazolo[4,5-b]pyridin-3-yl)-N-(3-chloropyridin-2-yl)-N-(1-methylpiperidin-3-yl)benzamide] | 0.653* cm | 0.851* cm | 0.858* cm | 0.951* cm
2 | CCN1CCC[C@@H](N(C(=O)c2ccc(-n3nnc4cccnc43)cc2)c2ncccc2Cl)C1 [CLY-2, (R)-4-(3H-[1,2,3]triazolo[4,5-b]pyridin-3-yl)-N-(3-chloropyridin-2-yl)-N-(1-ethylpiperidin-3-yl)benzamide] | 0.676* cm | 0.865* cm | 0.869* cm | 0.962* cm
3 | CNC1CCCC(N(C(=O)c2ccc(-n3nnc4cccnc43)cc2)c2ncccc2Cl)C1 (stereo not shown) [CLY-3] | 0.646* cm | 0.843* cm | 0.847* cm | 0.946* cm
4 | O=C(c1ccc(-n2nnc3cccnc32)cc1)N(c1ncccc1Cl)C1CCCC(O)C1 (stereo not shown) [CLY-4] | 0.641* cm | 0.837* cm | 0.841* cm | 0.939* cm
5 | O=C(c1ccc(-n2nnc3cccnc32)cc1)N(c1ncccc1Cl)[C@@H]1CCNC1 [CLY-8, (R)-4-(3H-[1,2,3]triazolo[4,5-b]pyridin-3-yl)-N-(3-chloropyridin-2-yl)-N-(pyrrolidin-3-yl)benzamide] | 0.682 * cm | 0.872* cm | 0.886* cm | 0.971* cm
6 | NC1CCCC(N(C(=O)c2ccc(-n3nnc4cccnc43)cc2)c2ncccc2Cl)C1 (stereo not shown) [CLY-11] | 0.637* cm | 0.831* cm | 0.834* cm | 0.932* cm
7 | O=C(c1ccc(-c2ccccc2-c2nnn[nH]2)cc1)N(c1ncccc1Cl)[C@@H]1CCCNC1 [CLY-19] | 0.623* cm | 0.826* cm | 0.828* cm | 0.915* cm
8 | O=C(c1ccc(-c2ccccc2Cl)cc1)N(c1ncccc1Cl)[C@@H]1CCCNC1 [CLY-36] | 0.628* cm | 0.824* cm | 0.823* cm | 0.919* cm
9 | Nc1ccccc1-c1ccc(C(=O)N(c2ncccc2Cl)[C@@H]2CCCNC2)cc1 [CLY-39] | 0.665* cm | 0.845* cm | 0.867* cm | 0.956* cm
10 | Nc1cc(N2CCCCC2)nc(N)[n+]1[O-] [Positive control group, minoxidil, reference compound] | 0.591* cm | 0.814* cm | 0.825 cm | 0.842* cm
